# Reference: patent publication US6613718B2, “Aryl ether derivatives and processes for their preparation and herbicidal and desiccant compositions containing them” (Ishihara Sangyo Kaisha, Ltd., priority 2001, dated 2003)
# Experiments:
# Assay type in all cases: in vivo
# [1] = system: barnyardgrass (Echinochloa crus-galli, ECHCG); test: Pre-emerge greenhouse herbicide activity screening, phytotoxicity rating; conditions: 14 days after application
# Outline: (§1)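 Herbicidal effect was recorded as percent-style phytotoxicity, 0 (none) to 100 (complete plant death), two weeks post-application. Applications were made over soil (pre-emerge, sown a day earlier) or over 2-3 leaf plants (post-emerge), using acetone solutions at 15–1000 g ai/ha.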
# [2] = system: ivyleaf morningglory (Ipomoea hederacea, IPOHE); test: as above; conditions: 14 days after application
# Outline: as §1
# [3] = system: large crabgrass (Digitaria sanguinalis, DIGSA); test: as above; conditions: 14 days after application
# Outline: as §1
# [4] = system: johnsongrass (Sorghum halepense, SORHA); test: as above; conditions: 14 days after application
# Outline: as §1
# [5] = system: lambsquarters (Chenopodium album, CHEAL); test: as above; conditions: 14 days after application
# Outline: as §1
# [6] = system: redroot pigweed (Amaranthus retroflexus, AMARE); test: as above; conditions: 14 days after application
# Outline: as §1
# [7] = system: common ragweed (Ambrosia artemisiifolia L., AMBEL); test: as above; conditions: 14 days after application
# Outline: as §1
# [8] = system: sicklepod (Cassia obtusifolia, CASOB); test: as above; conditions: 14 days after application
# Outline: as §1
# [9] = system: green foxtail (Setaria viridis, SETVI); test: as above; conditions: 14 days after application
# Outline: as §1
# [10] = system: velvetleaf (Abutilon theophrasti, ABUTH); test: as above; conditions: 14 days after application
# Outline: as §1
# [11] = system: upland rice (Oryza sp., var.Tebonnet, RICE); test: Post-emerge greenhouse screening, crop safety (phytotoxicity rating); conditions: 14 days after application
# Outline: as §1
# [12] = system: soybean (Glycine max L., var. Pella 86, SOY); test: as above; conditions: 14 days after application
# Outline: as §1
# [13] = system: field corn (Zea mays L., var. Dekalb 535, CORN); test: Post-emerge greenhouse screening, crop safety / corn selectivity (phytotoxicity rating); conditions: 14 days after application
# Outline: as §1
# [14] = system: barnyardgrass (Echinochloa crus-galli, ECHCG); test: Post-emerge greenhouse herbicide activity screening, phytotoxicity rating; conditions: 14 days after application
# Outline: as §1
# [15] = system: ivyleaf morningglory (Ipomoea hederacea, IPOHE); test: as above; conditions: 14 days after application
# Outline: as §1
# [16] = system: large crabgrass (Digitaria sanguinalis, DIGSA); test: as above; conditions: 14 days after application
# Outline: as §1
# [17] = system: johnsongrass (Sorghum halepense, SORHA); test: as above; conditions: 14 days after application
# Outline: as §1
# [18] = system: lambsquarters (Chenopodium album, CHEAL); test: as above
# Outline: as §1
# [19] = system: redroot pigweed (Amaranthus retroflexus, AMARE); test: as above
# Outline: as §1
# [20] = system: common ragweed (Ambrosia artemisiifolia L., AMBEL); test: as above
# Outline: as §1
# [21] = system: sicklepod (Cassia obtusifolia, CASOB); test: as above
# Outline: as §1
# [22] = system: green foxtail (Setaria viridis, SETVI); test: as above
# Outline: as §1
# [23] = system: velvetleaf (Abutilon theophrasti, ABUTH); test: as above; conditions: 14 days after application
# Outline: as §1
# [24] = system: upland rice (Oryza sp., var.Tebonnet, RICE); test: Pre-emerge greenhouse screening, crop safety (phytotoxicity rating); conditions: 14 days after application
# Outline: as §1
# [25] = system: field corn (Zea mays L., var. Dekalb 535, CORN); test: as above; conditions: 14 days after application
# Outline: as §1
# [26] = system: soybean (Glycine max L., var. Pella 86, SOY); test: as above; conditions: 14 days after application
# Outline: as §1
# [27] = 125 g ai/ha, 14 days after application
# [28] = 250 g ai/ha, 14 days after application
compound,measurement,setting,value
Cn1c(C(F)(F)F)cc(=O)n(-c2cc(Oc3ccccc3)c(C#N)cc2F)c1=S [Compound 1-69],ECHCG phytotoxicity rating (0-100 scale),[1]; 125 g ai/ha,90
same,ECHCG phytotoxicity rating (0-100 scale),[1]; 250 g ai/ha,95
same,IPOHE phytotoxicity rating (0-100 scale),[2]; 125 g ai/ha,100
same,IPOHE phytotoxicity rating (0-100 scale),[2]; 250 g ai/ha,100
same,DIGSA phytotoxicity rating (0-100 scale),[3]; 125 g ai/ha,99
same,DIGSA phytotoxicity rating (0-100 scale),[3]; 250 g ai/ha,100
same,SORHA phytotoxicity rating (0-100 scale),[4]; 125 g ai/ha,95
same,SORHA phytotoxicity rating (0-100 scale),[4]; 250 g ai/ha,95
same,CHEAL phytotoxicity rating (0-100 scale),[5]; 125 g ai/ha,100
same,CHEAL phytotoxicity rating (0-100 scale),[5]; 250 g ai/ha,100
same,AMARE phytotoxicity rating (0-100 scale),[6]; 125 g ai/ha,100
same,AMARE phytotoxicity rating (0-100 scale),[6]; 250 g ai/ha,100
same,AMBEL phytotoxicity rating (0-100 scale),[7]; 125 g ai/ha,100
same,AMBEL phytotoxicity rating (0-100 scale),[7]; 250 g ai/ha,100
same,CASOB phytotoxicity rating (0-100 scale),[8]; 125 g ai/ha,100
same,CASOB phytotoxicity rating (0-100 scale),[8]; 250 g ai/ha,99
same,SETVI phytotoxicity rating (0-100 scale),[9]; 125 g ai/ha,100
same,SETVI phytotoxicity rating (0-100 scale),[9]; 250 g ai/ha,100
same,ABUTH phytotoxicity rating (0-100 scale),[10]; 125 g ai/ha,100
same,ABUTH phytotoxicity rating (0-100 scale),[10]; 250 g ai/ha,100
same,"RICE crop damage, phytotoxicity rating (0-100 scale)",[11]; 125 g ai/ha,0
same,"RICE crop damage, phytotoxicity rating (0-100 scale)",[11]; 250 g ai/ha,0
same,"SOY crop damage, phytotoxicity rating (0-100 scale)",[12]; 125 g ai/ha,0
same,"SOY crop damage, phytotoxicity rating (0-100 scale)",[12]; 250 g ai/ha,50
same,"CORN crop damage, phytotoxicity rating (0-100 scale)",[13]; 125 g ai/ha,0
same,"CORN crop damage, phytotoxicity rating (0-100 scale)",[13]; 250 g ai/ha,5
same,ECHCG phytotoxicity rating (0-100 scale),[14]; 125 g ai/ha,0
same,ECHCG phytotoxicity rating (0-100 scale),[14]; 250 g ai/ha,25
same,IPOHE phytotoxicity rating (0-100 scale),[15]; 125 g ai/ha,100
same,IPOHE phytotoxicity rating (0-100 scale),[15]; 250 g ai/ha,100
same,DIGSA phytotoxicity rating (0-100 scale),[16]; 125 g ai/ha,0
same,DIGSA phytotoxicity rating (0-100 scale),[16]; 250 g ai/ha,30
same,SORHA phytotoxicity rating (0-100 scale),[17]; 125 g ai/ha,0
same,SORHA phytotoxicity rating (0-100 scale),[17]; 250 g ai/ha,0
same,CHEAL phytotoxicity rating (0-100 scale),[18]; 31.3 g ai/ha,80
same,CHEAL phytotoxicity rating (0-100 scale),[18]; 62.5 g ai/ha,80
same,CHEAL phytotoxicity rating (0-100 scale),[18]; [27],100
same,CHEAL phytotoxicity rating (0-100 scale),[18]; [28],100
same,AMARE phytotoxicity rating (0-100 scale),[19]; 31.3 g ai/ha,100
same,AMARE phytotoxicity rating (0-100 scale),[19]; 62.5 g ai/ha,100
same,AMARE phytotoxicity rating (0-100 scale),[19]; [27],99
same,AMARE phytotoxicity rating (0-100 scale),[19]; [28],100
same,AMBEL phytotoxicity rating (0-100 scale),[20]; 31.3 g ai/ha,70
same,AMBEL phytotoxicity rating (0-100 scale),[20]; 62.5 g ai/ha,70
same,AMBEL phytotoxicity rating (0-100 scale),[20]; [27],30
same,AMBEL phytotoxicity rating (0-100 scale),[20]; [28],35
same,CASOB phytotoxicity rating (0-100 scale),[21]; 31.3 g ai/ha,50
same,CASOB phytotoxicity rating (0-100 scale),[21]; 62.5 g ai/ha,65
same,CASOB phytotoxicity rating (0-100 scale),[21]; [27],75
same,CASOB phytotoxicity rating (0-100 scale),[21]; [28],70
same,SETVI phytotoxicity rating (0-100 scale),[22]; 31.3 g ai/ha,0
same,SETVI phytotoxicity rating (0-100 scale),[22]; 62.5 g ai/ha,50
same,SETVI phytotoxicity rating (0-100 scale),[22]; [27],0
same,SETVI phytotoxicity rating (0-100 scale),[22]; [28],30
same,ABUTH phytotoxicity rating (0-100 scale),[23]; 125 g ai/ha,100
same,ABUTH phytotoxicity rating (0-100 scale),[23]; 250 g ai/ha,100
same,"RICE crop damage, phytotoxicity rating (0-100 scale)",[24]; 125 g ai/ha,50
same,"RICE crop damage, phytotoxicity rating (0-100 scale)",[24]; 250 g ai/ha,60
same,"CORN crop damage, phytotoxicity rating (0-100 scale)",[25]; 125 g ai/ha,5
same,"CORN crop damage, phytotoxicity rating (0-100 scale)",[25]; 250 g ai/ha,10
same,"SOY crop damage, phytotoxicity rating (0-100 scale)",[26]; 125 g ai/ha,30
same,"SOY crop damage, phytotoxicity rating (0-100 scale)",[26]; 250 g ai/ha,50
COc1ccccc1Oc1cc(-n2c(=O)cc(C(F)(F)F)n(C)c2=S)c(F)cc1C#N [Compound 1-71],ECHCG phytotoxicity rating (0-100 scale),[1]; 125 g ai/ha,100
same,ECHCG phytotoxicity rating (0-100 scale),[1]; 250 g ai/ha,100
same,IPOHE phytotoxicity rating (0-100 scale),[2]; 125 g ai/ha,100
same,IPOHE phytotoxicity rating (0-100 scale),[2]; 250 g ai/ha,100
same,DIGSA phytotoxicity rating (0-100 scale),[3]; 125 g ai/ha,100
same,DIGSA phytotoxicity rating (0-100 scale),[3]; 250 g ai/ha,100
same,SORHA phytotoxicity rating (0-100 scale),[4]; 125 g ai/ha,99
same,SORHA phytotoxicity rating (0-100 scale),[4]; 250 g ai/ha,100
same,CHEAL phytotoxicity rating (0-100 scale),[5]; 125 g ai/ha,100
same,CHEAL phytotoxicity rating (0-100 scale),[5]; 250 g ai/ha,100
same,AMARE phytotoxicity rating (0-100 scale),[6]; 125 g ai/ha,100
same,AMARE phytotoxicity rating (0-100 scale),[6]; 250 g ai/ha,100
same,AMBEL phytotoxicity rating (0-100 scale),[7]; 125 g ai/ha,100
same,AMBEL phytotoxicity rating (0-100 scale),[7]; 250 g ai/ha,100
same,CASOB phytotoxicity rating (0-100 scale),[8]; 125 g ai/ha,95
same,CASOB phytotoxicity rating (0-100 scale),[8]; 250 g ai/ha,100
same,SETVI phytotoxicity rating (0-100 scale),[9]; 125 g ai/ha,100
same,SETVI phytotoxicity rating (0-100 scale),[9]; 250 g ai/ha,100
same,ABUTH phytotoxicity rating (0-100 scale),[10]; 125 g ai/ha,100
same,ABUTH phytotoxicity rating (0-100 scale),[10]; 250 g ai/ha,100
same,"RICE crop damage, phytotoxicity rating (0-100 scale)",[11]; 125 g ai/ha,0
same,"RICE crop damage, phytotoxicity rating (0-100 scale)",[11]; 250 g ai/ha,0
same,"SOY crop damage, phytotoxicity rating (0-100 scale)",[12]; 125 g ai/ha,50
same,"SOY crop damage, phytotoxicity rating (0-100 scale)",[12]; 250 g ai/ha,75
same,"CORN crop damage, phytotoxicity rating (0-100 scale)",[13]; 125 g ai/ha,0
same,"CORN crop damage, phytotoxicity rating (0-100 scale)",[13]; 250 g ai/ha,0
same,ECHCG phytotoxicity rating (0-100 scale),[14]; 125 g ai/ha,35
same,ECHCG phytotoxicity rating (0-100 scale),[14]; 250 g ai/ha,65
same,IPOHE phytotoxicity rating (0-100 scale),[15]; 125 g ai/ha,100
same,IPOHE phytotoxicity rating (0-100 scale),[15]; 250 g ai/ha,100
same,DIGSA phytotoxicity rating (0-100 scale),[16]; 125 g ai/ha,50
same,DIGSA phytotoxicity rating (0-100 scale),[16]; 250 g ai/ha,60
same,SORHA phytotoxicity rating (0-100 scale),[17]; 125 g ai/ha,0
same,SORHA phytotoxicity rating (0-100 scale),[17]; 250 g ai/ha,15
same,CHEAL phytotoxicity rating (0-100 scale),[18]; [27],100
same,CHEAL phytotoxicity rating (0-100 scale),[18]; [28],100
same,AMARE phytotoxicity rating (0-100 scale),[19]; [27],100
same,AMARE phytotoxicity rating (0-100 scale),[19]; [28],100
same,AMBEL phytotoxicity rating (0-100 scale),[20]; [27],80
same,AMBEL phytotoxicity rating (0-100 scale),[20]; [28],90
same,CASOB phytotoxicity rating (0-100 scale),[21]; [27],50
same,CASOB phytotoxicity rating (0-100 scale),[21]; [28],50
same,SETVI phytotoxicity rating (0-100 scale),[22]; [27],85
same,SETVI phytotoxicity rating (0-100 scale),[22]; [28],85
same,ABUTH phytotoxicity rating (0-100 scale),[23]; 125 g ai/ha,100
same,ABUTH phytotoxicity rating (0-100 scale),[23]; 250 g ai/ha,100
same,"RICE crop damage, phytotoxicity rating (0-100 scale)",[24]; 125 g ai/ha,50
same,"RICE crop damage, phytotoxicity rating (0-100 scale)",[24]; 250 g ai/ha,65
same,"CORN crop damage, phytotoxicity rating (0-100 scale)",[25]; 125 g ai/ha,0
same,"CORN crop damage, phytotoxicity rating (0-100 scale)",[25]; 250 g ai/ha,5
same,"SOY crop damage, phytotoxicity rating (0-100 scale)",[26]; 125 g ai/ha,45
same,"SOY crop damage, phytotoxicity rating (0-100 scale)",[26]; 250 g ai/ha,60
